Experiments:
human NOD2 signaling = test: Inhibition of human NOD2 signaling in HEK-Blue-hNOD2 cells (L18-MDP stimulated, SEAP reporter); format: cell-based; conditions: Homo sapiens, HEK-Blue hNOD2, HEK-Blue-hNOD2 cells, NOD2 ligand stimulation, SEAP reporter; read-out: hNOD2 IC50
Procedure, shortened: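 HEK-Blue-hNOD2 cells (HEK293 with NOD2 and SEAP reporter), 12500/well, treated with 10-point 3-fold compound dilutions plus L18-MDP 0.5 ng/mL final, 24 h at 37 °C. Supernatant SEAP read with QUANTI-Blue after 3 h at 620 nm; IC50 by 4-parameter fit vs DMSO±L18-MDP controls.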

[1] = biological target: T1, RIPK2 and XIAP protein-protein interaction (Homo sapiens, UniProt O43353); test: Inhibition of the interaction of RIPK2 with XIAP (NanoBRET in HEK293T cells); format: cell-based; conditions: RIPK2 HaloTag / XIAP NanoLuc, read-out: NanoBRET Scaffolding IC50
T1 construct: the N-terminus of full-length RIPK2 was appended with the HaloTag fusion protein; expressed in transfected cells; host or cells: HEK293T
T1 sequence (O43353 whole entry, the tested form may be a part): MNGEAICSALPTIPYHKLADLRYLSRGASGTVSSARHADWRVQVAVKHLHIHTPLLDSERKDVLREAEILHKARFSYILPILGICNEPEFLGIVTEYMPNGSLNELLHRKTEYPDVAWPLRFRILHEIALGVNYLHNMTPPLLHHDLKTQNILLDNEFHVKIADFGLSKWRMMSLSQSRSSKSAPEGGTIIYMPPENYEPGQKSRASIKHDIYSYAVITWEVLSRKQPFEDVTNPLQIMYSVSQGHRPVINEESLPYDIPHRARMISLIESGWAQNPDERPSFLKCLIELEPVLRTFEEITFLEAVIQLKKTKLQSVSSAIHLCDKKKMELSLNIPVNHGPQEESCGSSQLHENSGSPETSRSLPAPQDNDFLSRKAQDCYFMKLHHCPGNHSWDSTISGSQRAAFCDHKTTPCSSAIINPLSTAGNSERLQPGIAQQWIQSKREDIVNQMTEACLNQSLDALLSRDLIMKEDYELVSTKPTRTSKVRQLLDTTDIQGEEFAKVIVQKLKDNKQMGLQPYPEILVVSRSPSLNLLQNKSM
Procedure, shortened: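 HEK293T cells transiently co-transfected with HaloTag-RIPK2 (N-terminal) and XIAP-NanoLuc (C-terminal) full-length fusions, grown 24 h at 37° C. in Opti-MEM with 4% FBS. Compounds tested as 10-point 3-fold dilutions; NanoBRET ratio taken as 618 nm acceptor over 460 nm donor emission.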

RIPK2 enzyme = biological target: T2, RIPK2 enzyme (Homo sapiens, UniProt O43353); test: RIPK2 inhibition (ADP-Glo Kinase Assay); format: biochemical; conditions: RIPK2 5 nM, ATP 150 μM, MBP substrate, read-out: RIPK2 IC50
T2 construct: purchased Carna 09-128
T2 sequence (O43353 1-299 limits assumed): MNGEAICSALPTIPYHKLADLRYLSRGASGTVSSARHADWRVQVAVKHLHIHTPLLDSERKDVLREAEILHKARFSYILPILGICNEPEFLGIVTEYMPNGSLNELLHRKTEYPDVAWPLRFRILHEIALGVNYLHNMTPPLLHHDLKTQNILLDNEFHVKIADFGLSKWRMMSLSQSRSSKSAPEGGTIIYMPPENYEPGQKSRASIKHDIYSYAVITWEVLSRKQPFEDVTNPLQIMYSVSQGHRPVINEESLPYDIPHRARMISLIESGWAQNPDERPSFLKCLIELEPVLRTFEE
Procedure, shortened: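 Human RIPK2 (5 nM) preincubated with compound 30 min at room temperature in 50 mM HEPES pH 7.5, 10 mM MgCl2, 2 mM DTT, 1 mM EGTA, 0.01% Brij-35, 0.05% BSA; native swine MBP as substrate. ADP formed quantified by ADP-Glo luminescence; percent inhibition relative to DMSO and no-enzyme controls.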

| IC50 (human NOD2 signaling) | IC50 [1] | IC50 (RIPK2 enzyme) | Compound |
| --- | --- | --- | --- |
| 9 nM | 54 nM | < 2.5 nM | CC(C)(C)n1cc(NC(=O)Cc2ccc(Oc3ccnc4ccc(S(C)(=O)=O)cc34)cc2F)cn1 [Compound 38, N-(1-(tert-butyl)-1H-pyrazol-4-yl)-2-(2-fluoro-4-((6-(methylsulfonyl)quinolin-4-yl)oxy)phenyl)acetamide] |
| 5.9 nM | 29 nM | < 2.5 nM | Cc1cc(CC(=O)Nc2cnn(C(C)(C)C)c2)ccc1Oc1ccnc2ccc(OC3CCNCC3)cc12 [Compound 83, N-(1-(tert-butyl)-1H-pyrazol-4-yl)-2-(3-methyl-4-((6-(piperidin-4-yloxy)quinolin-4-yl)oxy)phenyl) acetamide] |
| 0.7 nM | 12 nM | < 2.5 nM | Cc1cc(CC(=O)Nc2cnn(C(C)(C)C)c2)ccc1Oc1ccnc2ccc(S(C)(=O)=O)cc12 [Compound 86, N-(1-(tert-butyl)-1H-pyrazol-4-yl)-2-(3-methyl-4-((6-(methylsulfonyl)quinolin-4-yl)oxy)phenyl)acetamide] |
| 0.5 nM | 12 nM | < 2.5 nM | Cc1c(Oc2ccnc3ccc(S(C)(=O)=O)cc23)ccc(CC(=O)Nc2cnn(C(C)(C)C)c2)c1F [Compound 91, N-(1-(tert-butyl)-1H-pyrazol-4-yl)-2-(2-fluoro-3-methyl-4-((6-(methylsulfonyl)quinolin-4-yl)oxy)phenyl)acetamide] |
| 0.3 nM | 15 nM | < 2.5 nM | CCS(=O)(=O)c1ccc2nccc(Oc3ccc(CC(=O)Nc4cnn(C(C)(C)C)c4)cc3C)c2c1 [Compound 99, N-(1-(tert-butyl)-1H-pyrazol-4-yl)-2-(4-((6-(ethylsulfonyl)quinolin-4-yl)oxy)-3-methylphenyl)acetamide] |
| 2.2 nM | 33 nM | < 2.5 nM | Cc1cc(CC(=O)Nc2cnn(C(C)(C)C)c2)c(F)cc1Oc1ccnc2ccc(S(C)(=O)=O)cc12 [Compound 113, N-(1-(tert-butyl)-1H-pyrazol-4-yl)-2-(2-fluoro-5-methyl-4-((6-(methylsulfonyl)quinolin-4-yl)oxy)phenyl)acetamide] |
| 0.5 nM | 14 nM | < 2.5 nM | Cc1cc(CC(=O)Nc2cnn(C(C)(C)C)c2)c(F)cc1Oc1ccnc2ccc(C(N)=O)cc12 [Compound 359, 4-(4-(2-((1-(tert-butyl)-1H-pyrazol-4-yl)amino)-2-oxoethyl)-5-fluoro-2-methyl-phenoxy) quinoline-6-carboxamide] |
| 0.2 nM | 8 nM | < 2.5 nM | CNC(=O)c1ccc2nccc(Oc3cc(F)c(CC(=O)Nc4cnn(C(C)(C)C)c4)cc3C)c2c1 [Compound 360, 4-(4-(2-((1-(tert-butyl)-1H-pyrazol-4-yl)amino)-2-oxoethyl)-5-fluoro-2-methylphenoxy)-N-methylquinoline-6-carboxamide] |
| 1.2 nM | 61.4 nM | < 2.5 nM | Cc1cc(CC(=O)Nc2cnn(C(C)(C)C)c2)cc(C)c1Oc1ccnc2cc(F)c(C(N)=O)cc12 [Compound 581, 4-(4-(2-((1-(tert-butyl)-1H-pyrazol-4-yl)amino)-2-oxoethyl)-2,6-dimethylphenoxy)-7-fluoroquinoline-6-carboxamide] |

Source: US12624018B1, “Inhibitors of RIPK2 and medical uses thereof” (Odyssey Therapeutics, Inc., priority 2022, dated 2026)
